{"source": "patent EP1398318A1", "about": "“Process for conducting chemical reactions in a liquid phase in the presence of a catalyst and a 1,3-substituted imidazolium salt” (BASF AKTIENGESELLSCHAFT, priority 2002, dated 2004)", "origin": "cited, not measured here", "target": "menschlichen Myeloperoxidase (Homo sapiens, UniProt P05164)", "sequence (P05164 279-745 limits assumed)": "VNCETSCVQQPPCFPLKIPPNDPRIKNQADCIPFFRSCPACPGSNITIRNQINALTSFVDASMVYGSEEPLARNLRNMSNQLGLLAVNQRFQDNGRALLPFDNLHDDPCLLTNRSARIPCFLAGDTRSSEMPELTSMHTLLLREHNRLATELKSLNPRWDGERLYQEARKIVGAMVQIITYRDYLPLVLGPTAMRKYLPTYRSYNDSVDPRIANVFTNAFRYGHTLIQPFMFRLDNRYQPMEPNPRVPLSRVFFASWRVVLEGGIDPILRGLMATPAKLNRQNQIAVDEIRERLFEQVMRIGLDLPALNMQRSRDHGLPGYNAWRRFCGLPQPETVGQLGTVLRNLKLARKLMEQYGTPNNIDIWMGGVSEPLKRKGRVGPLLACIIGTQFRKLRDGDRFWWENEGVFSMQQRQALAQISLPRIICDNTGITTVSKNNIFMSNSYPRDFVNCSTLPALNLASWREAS", "sequence (P05164 165-278 limits assumed)": "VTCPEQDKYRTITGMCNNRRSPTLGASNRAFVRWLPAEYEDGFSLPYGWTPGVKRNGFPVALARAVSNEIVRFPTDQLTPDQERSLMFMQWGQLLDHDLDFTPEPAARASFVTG", "conditions": "competitive with hydrogen peroxide at the active centre"}
{"smiles": "Cl", "note": "[Chlorid]", "values": [{"measurement": "bindet kompetitiv zu Wasserstoffperoxid am aktiven Zentrum des Enzyms", "value": "inhibierend"}]}
